From PubChem BioAssay (NCI)
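The compound was tested at five concentrations on cells cultured in 96-well plates, with a 48-hour exposure period. At the GI50, growth is halved. The concentration for full growth arrest is given as TGI.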

Key:
Test in all cases: DTP human tumour cell line panel, 48 h
BT-549 breast = system: BT-549 breast
NCI/ADR-RES ovarian = system: NCI/ADR-RES ovarian
OVCAR-4 ovarian = system: OVCAR-4 ovarian
HOP-62 NSCLC = system: HOP-62 NSCLC
786-0 renal = system: 786-0 renal
NCI-H460 lung = system: NCI-H460 lung
MCF7 breast = system: MCF7 breast
M14 melanoma = system: M14 melanoma
ACHN renal = system: ACHN renal
OVCAR-8 ovarian = system: OVCAR-8 ovarian
SW-620 colon = system: SW-620 colon
OVCAR-5 ovarian = system: OVCAR-5 ovarian
MALME-3M melanoma = system: MALME-3M melanoma
A549 NSCLC = system: A549 NSCLC
LOX IMVI melanoma = system: LOX IMVI melanoma
HT29 colon = system: HT29 colon
PC-3 prostate = system: PC-3 prostate
MDA-MB-435 = system: MDA-MB-435
HOP-92 NSCLC = system: HOP-92 NSCLC
KM12 colon = system: KM12 colon
NCI-H522 lung = system: NCI-H522 lung
HCT-15 colon = system: HCT-15 colon
HCT-116 colon = system: HCT-116 colon
MDA-MB-231 breast = system: MDA-MB-231 breast
CCRF-CEM leukemia = system: CCRF-CEM leukemia
SK-OV-3 ovarian = system: SK-OV-3 ovarian
DU-145 prostate = system: DU-145 prostate
A498 renal = system: A498 renal
SK-MEL-28 melanoma = system: SK-MEL-28 melanoma
NCI-H23 lung = system: NCI-H23 lung
SNB-75 CNS = system: SNB-75 CNS
UO-31 renal = system: UO-31 renal
HL-60(TB) leukemia = system: HL-60(TB) leukemia
SF-268 CNS = system: SF-268 CNS
NCI-H226 lung = system: NCI-H226 lung
IGROV1 ovarian = system: IGROV1 ovarian
EKVX NSCLC = system: EKVX NSCLC
TK-10 renal = system: TK-10 renal
HCC-2998 colon = system: HCC-2998 colon
RXF 393 renal = system: RXF 393 renal
SF-539 CNS = system: SF-539 CNS
SK-MEL-2 melanoma = system: SK-MEL-2 melanoma
UACC-62 melanoma = system: UACC-62 melanoma
UACC-257 melanoma = system: UACC-257 melanoma
T-47D breast = system: T-47D breast
SR leukemia = system: SR leukemia
SN12C renal = system: SN12C renal
SF-295 CNS = system: SF-295 CNS
HS 578T breast = system: HS 578T breast
U251 CNS = system: U251 CNS
OVCAR-3 ovarian = system: OVCAR-3 ovarian
SK-MEL-5 melanoma = system: SK-MEL-5 melanoma
SNB-19 CNS = system: SNB-19 CNS
MOLT-4 leukemia = system: MOLT-4 leukemia

O=C1c2ccccc2C(=O)c2c1ccc(C(Br)Br)c2Cl
GI50 (BT-549 breast): 1.79 µM
TGI (BT-549 breast): 4.61 µM
GI50 (NCI/ADR-RES ovarian): 3.1 µM
TGI (NCI/ADR-RES ovarian): 14.9 µM
GI50 (OVCAR-4 ovarian): 1.78 µM
TGI (OVCAR-4 ovarian): 4.3 µM
GI50 (HOP-62 NSCLC): 2.1 µM
TGI (HOP-62 NSCLC): 4.67 µM
GI50 (786-0 renal): 1.71 µM
TGI (786-0 renal): 3.25 µM
GI50 (NCI-H460 lung): 2.01 µM
TGI (NCI-H460 lung): 3.85 µM
GI50 (MCF7 breast): 1.69 µM
TGI (MCF7 breast): 3.86 µM
GI50 (M14 melanoma): 2.67 µM
TGI (M14 melanoma): 9.06 µM
GI50 (ACHN renal): 1.57 µM
TGI (ACHN renal): 3.02 µM
GI50 (OVCAR-8 ovarian): 3.16 µM
TGI (OVCAR-8 ovarian): 8.87 µM
GI50 (SW-620 colon): 1.78 µM
TGI (SW-620 colon): 3.4 µM
GI50 (OVCAR-5 ovarian): 11.1 µM
TGI (OVCAR-5 ovarian): 23.9 µM
GI50 (MALME-3M melanoma): 1.69 µM
TGI (MALME-3M melanoma): 3.38 µM
GI50 (A549 NSCLC): 16.7 µM
TGI (A549 NSCLC): 32.3 µM
GI50 (LOX IMVI melanoma): 1.59 µM
TGI (LOX IMVI melanoma): 3.08 µM
GI50 (HT29 colon): 1.87 µM
TGI (HT29 colon): 3.54 µM
GI50 (PC-3 prostate): 2.38 µM
TGI (PC-3 prostate): 6.28 µM
GI50 (MDA-MB-435): 3.03 µM
TGI (MDA-MB-435): 10.9 µM
GI50 (HOP-92 NSCLC): 1.67 µM
TGI (HOP-92 NSCLC): 3.35 µM
GI50 (KM12 colon): 2.04 µM
TGI (KM12 colon): 5.28 µM
GI50 (NCI-H522 lung): 1.6 µM
TGI (NCI-H522 lung): 3.3 µM
GI50 (HCT-15 colon): 1.69 µM
TGI (HCT-15 colon): 3.4 µM
GI50 (HCT-116 colon): 1.58 µM
TGI (HCT-116 colon): 3.02 µM
GI50 (MDA-MB-231 breast): 1.87 µM
TGI (MDA-MB-231 breast): 3.7 µM
GI50 (CCRF-CEM leukemia): 2.1 µM
TGI (CCRF-CEM leukemia): 8.21 µM
GI50 (SK-OV-3 ovarian): 15.1 µM
TGI (SK-OV-3 ovarian): 30 µM
GI50 (DU-145 prostate): 2.07 µM
TGI (DU-145 prostate): 4.7 µM
GI50 (A498 renal): 17 µM
TGI (A498 renal): 31.9 µM
GI50 (SK-MEL-28 melanoma): 11.9 µM
TGI (SK-MEL-28 melanoma): 24.4 µM
GI50 (NCI-H23 lung): 1.91 µM
TGI (NCI-H23 lung): 4.92 µM
GI50 (SNB-75 CNS): 13.7 µM
TGI (SNB-75 CNS): 26.9 µM
GI50 (UO-31 renal): 1.73 µM
TGI (UO-31 renal): 3.78 µM
GI50 (HL-60(TB) leukemia): 3.66 µM
TGI (HL-60(TB) leukemia): 11.2 µM
GI50 (SF-268 CNS): 1.68 µM
TGI (SF-268 CNS): 3.45 µM
GI50 (NCI-H226 lung): 4.49 µM
TGI (NCI-H226 lung): 24.4 µM
GI50 (IGROV1 ovarian): 1.7 µM
TGI (IGROV1 ovarian): 3.89 µM
GI50 (EKVX NSCLC): 4.42 µM
TGI (EKVX NSCLC): 17.8 µM
GI50 (TK-10 renal): 3.91 µM
TGI (TK-10 renal): 12.3 µM
GI50 (HCC-2998 colon): 3.42 µM
TGI (HCC-2998 colon): 12.1 µM
GI50 (RXF 393 renal): 2 µM
TGI (RXF 393 renal): 4.79 µM
GI50 (SF-539 CNS): 1.99 µM
TGI (SF-539 CNS): 4.61 µM
GI50 (SK-MEL-2 melanoma): 3.27 µM
TGI (SK-MEL-2 melanoma): 12.4 µM
GI50 (UACC-62 melanoma): 4.56 µM
TGI (UACC-62 melanoma): 16.6 µM
GI50 (UACC-257 melanoma): 12.1 µM
TGI (UACC-257 melanoma): 24.8 µM
GI50 (T-47D breast): 1.76 µM
TGI (T-47D breast): 5.79 µM
GI50 (SR leukemia): 1.83 µM
TGI (SR leukemia): 4.33 µM
GI50 (SN12C renal): 1.92 µM
TGI (SN12C renal): 3.82 µM
GI50 (SF-295 CNS): 11.7 µM
TGI (SF-295 CNS): 23.9 µM
GI50 (HS 578T breast): 2.81 µM
TGI (HS 578T breast): 9.11 µM
GI50 (U251 CNS): 1.75 µM
TGI (U251 CNS): 3.24 µM
GI50 (OVCAR-3 ovarian): 1.66 µM
TGI (OVCAR-3 ovarian): 3.12 µM
GI50 (SK-MEL-5 melanoma): 5.84 µM
TGI (SK-MEL-5 melanoma): 18.1 µM
GI50 (SNB-19 CNS): 3.55 µM
TGI (SNB-19 CNS): 13.5 µM
GI50 (MOLT-4 leukemia): 2.81 µM
TGI (MOLT-4 leukemia): 9.32 µM
